This assay has as its system 596521-263-R-J1-PDC complex spheroids, viability % of control. The assay can be described thus: Anticancer human tumor 596521-263-R-J1-PDC patient-derived soft tissue sarcoma cell line growth inhibition [GQUAD]. The note with it: for viability, T/C: stronger effect = lower value. From the text:
DNA G-quadruplex Stabilizer Agents in Combinations in Complex Spheroids
A high-throughput screen of multi-cell type tumor spheroids was designed to identify active combinations of DNA G-quadruplex stabilizer agents and targeted small molecules. Complex spheroids include a stromal component modeled by human endothelial cells (HUVEC) and fibroblasts modeled by human mesenchymal stem cells (MSCs). The concentration ranges selected for each drug and investigational agent were based upon clinically achievable concentrations if the clinical Cmax of the agent was known.
Compounds. The drugs and investigational agents: pidnarulex (CX-5461; NSC782164), APTO-253 (NSC789042), BRACO-19 (NSC847499), peposertib (NSC802822), ceralasertib (NSC780249), elimusertib (NSC800525), camonsertib (NSC841442), AZD-1390 (NSC803789), olaparib (NSC753686), talazoparib (NSC767125), ART-558 (NSC835418), sotorasib (NSC818433), MRTX-1133 (NSC836407), SN-38 (NSC673596), topotecan (NSC609699), etoposide (NSC141540), doxorubicin (NSC123127), gemcitabine (NSC613327), 5-fluorouracil (NSC19893), paclitaxel (NSC125973), vemurafenib (NSC761431), panobinostat (NSC761190), R-306465 (JNJ-16241199; NSC773264), adavosertib (NSC754352), TP-3654 (NSC805149), carboplatin (NSC241240), KSQ-4279 (NSC840948), and staurosporine (NSC755774) were obtained from the National Cancer Institute (NCI) Developmental Therapeutics Program Chemical Repository (34). The FDA-approved anticancer drug set is available from the NCI Developmental Therapeutics Program. […] The stock solutions were prepared in dimethyl sulfoxide (DMSO, Sigma-Aldrich, St. Louis, MO, cat. D2650) at 800-fold the tested concentration and stored at -70 degrees C prior to their use. All drugs and investigational agents were tested over a range starting from a high concentration at or near the clinical Cmax and decreasing in half-log increments. If the clinical Cmax for an agent had not been determined, the highest concentration tested was 10 microM.
2.3 Cell Culture. All cells were maintained in an incubator at 37 degrees C and 5% CO2 with 95% humidity. The PDC lines were cultured according to standard operating procedures established by the NCI PDMR. All PDCs were thawed and cultured in Matrigel-coated flasks prepared with a working solution of 1X Ham's F-12 nutrient mix, without supplementation (Invitrogen, cat. 11765054), 100 U/mL penicillin-streptomycin (Invitrogen, cat. 15140122), and 2.5% Matrigel (Corning Inc., cat. 354248) for the first three passages. The 857933-349-R-J2-PDC line was cultured in 6C/Colon 1B media, which includes advanced DMEM/F-12 (Thermo Fisher Scientific, cat. 12634028), 10 mM HEPES (Thermo Fisher Scientific, cat. 15630080), 1X GlutaMAX supplement (Thermo Fisher Scientific, cat. 35050061), 0.1 mg/mL primocin (InvivoGen, cat. ant-pm-2), 10% defined fetal bovine serum, heat inactivated (HyClone Laboratories Inc., cat. SH30070.03HI), 50% L-WRN conditioned media (ATCC, cat. CRL-3276), 1.25 mM N-Acetyl-L-cysteine (Sigma-Aldrich, cat. A9165), 10 mM nicotinamide (Sigma-Aldrich, cat. N0636), 1X B-27 supplement (Thermo Fisher Scientific, cat. 17504044), 1X N-2 supplement (Thermo Fisher Scientific, cat. 17502048), 10 microM Y-27632 dihydrochloride (Tocris Bioscience, cat. 1254), and 50 ng/mL human EGF recombinant protein (Thermo Fisher Scientific, cat. PHG0311). The 485176-168-R4-J1-PDC line was cultured in Panc media, which includes all 6C/Colon 1B media components plus 100 ng/mL human FGF-10 (Thermo Fisher Scientific, cat. 100-26), 500 nM SB-431542 (Selleckchem, cat. S1067), and gastrin (Tocris, cat. 3006).
[…]

The mark [1] stands for this setting: curve of first compound, second compound 0.0316 µM.
[2] abbreviates: curve of first compound, second compound 0.1 µM.
The mark [3] stands for this setting: curve of first compound, second compound 0.316 µM.
Setting [4] is: curve of first compound, second compound 1 µM.
Where [5] appears, read: curve of first compound, second compound 3.16 µM.
[6] abbreviates: curve of first compound, second compound 10 µM.
The mark [7] stands for this setting: second compound 0.0316 µM, first compound 0.0316 µM.
Setting [8] is: second compound 0.0316 µM, first compound 0.1 µM.
Where [9] appears, read: second compound 0.0316 µM, first compound 0.316 µM.
Where [10] appears, read: second compound 0.0316 µM, first compound 1 µM.
Where [11] appears, read: second compound 0.0316 µM, first compound 3.16 µM.
The mark [12] stands for this setting: second compound 0.0316 µM, first compound 10 µM.
[13] abbreviates: second compound 0.1 µM, first compound 0.0316 µM.
The mark [14] stands for this setting: second compound 0.1 µM, first compound 0.1 µM.
Where [15] appears, read: second compound 0.1 µM, first compound 0.316 µM.
[16] abbreviates: second compound 0.1 µM, first compound 1 µM.
Where [17] appears, read: second compound 0.1 µM, first compound 3.16 µM.
The mark [18] stands for this setting: second compound 0.1 µM, first compound 10 µM.
Setting [19] is: second compound 0.316 µM, first compound 0.0316 µM.
Where [20] appears, read: second compound 0.316 µM, first compound 0.1 µM.
Where [21] appears, read: second compound 0.316 µM, first compound 0.316 µM.
Where [22] appears, read: second compound 0.316 µM, first compound 1 µM.
Setting [23] is: second compound 0.316 µM, first compound 3.16 µM.
The mark [24] stands for this setting: second compound 0.316 µM, first compound 10 µM.
The mark [25] stands for this setting: second compound 1 µM, first compound 0.0316 µM.
The mark [26] stands for this setting: second compound 1 µM, first compound 0.1 µM.
The mark [27] stands for this setting: second compound 1 µM, first compound 0.316 µM.
[28] abbreviates: second compound 1 µM, first compound 1 µM.
Setting [29] is: second compound 1 µM, first compound 3.16 µM.
Setting [30] is: second compound 1 µM, first compound 10 µM.
Setting [31] is: second compound 3.16 µM, first compound 0.0316 µM.
Where [32] appears, read: second compound 3.16 µM, first compound 0.1 µM.
Setting [33] is: second compound 3.16 µM, first compound 0.316 µM.
Where [34] appears, read: second compound 3.16 µM, first compound 1 µM.
[35] abbreviates: second compound 3.16 µM, first compound 3.16 µM.
Setting [36] is: second compound 3.16 µM, first compound 10 µM.
The mark [37] stands for this setting: second compound 10 µM, first compound 0.0316 µM.
Setting [38] is: second compound 10 µM, first compound 0.1 µM.
Where [39] appears, read: second compound 10 µM, first compound 0.316 µM.
Setting [40] is: second compound 10 µM, first compound 1 µM.
The mark [41] stands for this setting: second compound 10 µM, first compound 3.16 µM.
Setting [42] is: second compound 10 µM, first compound 10 µM.

“And” between values parts separate entries of the source, which are not always exact repeats. Identical values can stand only once. Where only a bound is given, the exact number is not on record here.
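Also: spheroids exposed to drugs for 7 days before viability reading.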

Consider `O=c1[nH]cc(F)c(=O)[nH]1` + CN(C)c1ccc(Nc2c3ccc(NC(=O)CCN4CCCC4)cc3nc3cc(NC(=O)CCN4CCCC4)ccc23)cc1, for which the IC50 (as a rule, the concentration that gives 50% inhibition) reads like this: under setting [1], more than 10 µM; under setting [2], more than 10 µM; under setting [3], more than 10 µM; under setting [4], more than 10 µM; under setting [5], more than 10 µM; under setting [6], more than 10 µM. In addition, the viability, T/C (usually the ratio of treated to control) was 111% under setting [7]; 118% under setting [8]; 94.2% under setting [9]; 94.4% under setting [10]; 109% under setting [11]; 91.1% under setting [12]. The viability, T/C under setting [13] was 102%; the viability, T/C under setting [14] is 117%; the viability, T/C under setting [15] was 105%; the viability, T/C under setting [16] was 97%; the viability, T/C under setting [17] was 110%; the viability, T/C under setting [18] is 89.7%. Further, the viability, T/C runs as follows: under setting [19], 107%; under setting [20], 92.1%; under setting [21], 95.4%; under setting [22], 93.9%; under setting [23], 95.4%; under setting [24], 96.4%. Besides, the viability, T/C is, setting by setting: under setting [25], 98.9%; under setting [26], 101%; under setting [27], 102%; under setting [28], 111%; under setting [29], 105%; under setting [30], 98.2%. Moreover, the viability, T/C by setting is: under setting [31], 89.4%; under setting [32], 89.6%; under setting [33], 103%; under setting [34], 85.6%; under setting [35], 110%; under setting [36], 80%. Besides, the viability, T/C runs as follows: under setting [37], 66.5%; under setting [38], 67.4%; under setting [39], 63.1%; under setting [40], 75.2%; under setting [41], 68.4%; under setting [42], 64.1%.
As to `Nc1ccn(C2OC(CO)C(O)C2(F)F)c(=O)n1` (stereo unspecified), the viability, T/C was 53.5% and 48% and 59.9% (compound 0.0316 µM); 35.8% and 49.4% and 43.2% (compound 0.1 µM); 45% and 45.2% and 42.6% (compound 0.316 µM); 42.5% and 40.8% and 52% (compound 1 µM); 42.5% and 38.6% and 49.9% (compound 3.16 µM); 33.4% and 33.3% and 40.1% (compound 10 µM). Further, the IC50 (curve of compound) was < 0.0316 µM and 0.0354 µM and 0.168 µM.
Consider `CC(=O)O[C@H]1C(=O)[C@@]2(C)[C@H]([C@H](OC(=O)c3ccccc3)[C@]3(O)C[C@H](OC(=O)[C@H](O)[C@@H](NC(=O)c4ccccc4)c4ccccc4)C(C)=C1C3(C)C)[C@]1(OC(C)=O)CO[C@@H]1C[C@@H]2O`, for which the viability, T/C is, setting by setting: (compound 0.0316 µM) 76.3% and 38.3% and 43.2%; (compound 0.1 µM) 42.8% and 28.9% and 29%; (compound 0.316 µM) 10.7% and 26.6% and 31.2%. The IC50 (curve of compound) was 0.0783 µM and < 0.0316 µM.
As for `C=CC(=O)N1CCN(c2nc(=O)n(-c3c(C)ccnc3C(C)C)c3nc(-c4c(O)cccc4F)c(F)cc23)C(C)C1` (stereo unspecified) + CN(C)c1ccc(Nc2c3ccc(NC(=O)CCN4CCCC4)cc3nc3cc(NC(=O)CCN4CCCC4)ccc23)cc1, the half-inhibitory concentration (IC50) is, setting by setting: under setting [1], more than 10 µM; under setting [2], more than 10 µM; under setting [3], more than 10 µM; under setting [4], more than 10 µM; under setting [5], more than 10 µM; under setting [6], more than 10 µM. Besides, the viability, T/C reads like this: under setting [7], 114%; under setting [8], 94.2%; under setting [9], 112%; under setting [10], 101%; under setting [11], 98.2%; under setting [12], 69.6%. Besides, the viability, T/C reads like this: under setting [13], 110%; under setting [14], 102%; under setting [15], 96.9%; under setting [16], 105%; under setting [17], 103%; under setting [18], 69.2%. For the same compound, the viability, T/C reads like this: under setting [19], 110%; under setting [20], 99.5%; under setting [21], 98.8%; under setting [22], 97.3%; under setting [23], 96.9%; under setting [24], 77.9%. For the same compound, the viability, T/C under setting [25] was 96.2%; the viability, T/C under setting [26] is 108%; the viability, T/C under setting [27] was 103%; the viability, T/C under setting [28] was 103%; the viability, T/C under setting [29] is 93.7%; the viability, T/C under setting [30] was 83.6%. In addition, the viability, T/C runs as follows: under setting [31], 86.6%; under setting [32], 103%; under setting [33], 94.2%; under setting [34], 92.1%; under setting [35], 111%; under setting [36], 67.6%. In addition, the viability, T/C runs as follows: under setting [37], 71.3%; under setting [38], 70.3%; under setting [39], 77.2%; under setting [40], 75.6%; under setting [41], 76.3%; under setting [42], 58.3%.
Turning to `Cc1cnc(CNC(=O)c2c(=O)c3ccc(N4CCCN(C)CC4)nc3n3c2sc2ccccc23)cn1`, the viability, T/C by setting is: (compound 0.0316 µM) 99% [middle of 12 runs]; (compound 0.1 µM) 93.1% [middle of 12 runs]; (compound 0.316 µM) 80.5% [middle of 12 runs]; (compound 1 µM) 68% [middle of 12 runs]; (compound 3.16 µM) 56.4% [middle of 12 runs]; (compound 10 µM) 47.9% [middle of 12 runs].
